Literature values, collected in patent US20220226307A1, “INHIBITION OF BETA-2 NICOTINIC ACETYLCHOLINE RECEPTORS TO TREAT ALZHEIMER'S DISEASE PATHOLOGY” (INSTITUT PASTEUR, priority 2016, published 2022).

Test system: ventral hippocampus alpha-7 nAChR and alpha-4 beta-2 nAChR
Conditions: local infusion in ventral hippocampus (Felix and Levin, 1997; Levin et al., 2002)

SMILES | working memory
Br.CO[C@H]1CC=C2CCN3CCC4=C(CC(=O)OC4)[C@]23C1 [DHβE, dihydro-β-erythroidine hydrobromide] | induces working memory impairments
CCN1C[C@]2(COC(=O)c3ccccc3N3C(=O)C[C@H](C)C3=O)CC[C@H](OC)[C@@]34[C@@H]5C[C@H]6[C@H](OC)[C@@H]5[C@](O)(C[C@@H]6OC)[C@@](O)([C@@H](OC)[C@H]23)[C@@H]14 [MLA, methyllycaconitine] | induces working memory impairments
